In patent publication US20190119193A1, “COMPOSITION FOR REGULATING PLANT GROWTH, METHOD FOR TREATING PLANTS THEREWITH, AND ACTIVE INGREDIENT THEREOF” (Ivan Aleksandrovich Starikov, priority 2016, published 2019):

Tested on: spring wheat of “Lubava” variety
Assay: Field tests of DMOA and DEOA on wheat
Assay type: in vivo
Conditions: for Effect on wheat growth, yield and quality (in words): aqueous solutions in the proposed concentrations, field test under stress (abundant rainfalls)
Procedure: After that DMOA and DEOA were separately dissolved in dimethyl sulfoxide to give solutions of 10 g/L concentration, then water was added to give aqueous solutions of DMOA with the concentrations of 5.5·10^−8 M, 5.5·10^−9 M, 1.8·10^−9 M, 5.5·10^−10 M, 1.8·10^−10 M, 1.8·10^−11 M, and DEOA with the concentrations of 4.8·10^−8 M, 4.8·10^−9 M, […], 4.8·10^−10 M, 1.6·10^−10 M, 1.6·10^−11 M.
The field tests of the obtained aqueous solutions of DMOA and DEOA on spring wheat of “Lubava” variety were carried out. The tests were carried out in agroclimatic zone I, on the experimental field of the Grain Crops Protection Systems Laboratory of the Agricultural Research Center of Federal State Budgetary Scientific Institution “Moscow Research Institute of Agriculture” “Nemchinovka” “(Moscow Region, Odintsovo district, settlement Novoivanovskaya, 2015) according to the method adopted for registration tests of plant growth regulators (Guidelines for conducting registration tests of new forms of fertilizers, bioregulators and plant regulators. Moscow-Vladimir, 2009, p. 104; The method of state variety testing of agricultural crops. Grain, cereal, grain legumes and forage crops. Issue 1, Moscow, 1985, page 269, Issue 2, Moscow, 1989, p. 194; OST 10-108-87; GOST 26212-91; GOST-91).
The soil of the experimental field is sod-podzolic on clay loam mantle.
Tests were conducted starting from Apr. 29 to Jul. 30, 2015. In the first half of the growing period the weather conditions were unfavorable (abundant rainfalls in May and June), which is a significant stress factor.
Control test—without growth regulators treatment.
Area of experimental plots—100 m^2, accounting area—50 m^2. Fourfold replication of the experiments.
Preceding crop was winter wheat. Immediately after the autumn harvesting of winter crops the area was treated with disc harrow to a depth of 10-12 cm. Then, fall plowing to a depth of 18-20 cm by a reverse plow, harrowing, and moisture conservation were carried out.
Before seeding the test crop, the soil was fertilized with nitrogen-phosphorus-potassium fertilizer in a dose of N64P64K64. Date of sowing: Apr. 29, 2015 Seeding rate: 5.0 million of germinated grains per 1 hectare.
Before seeding, all the seeds were treated with “Vincite Forte” fungicide with a consumption rate of 1.0 L per ton of seeds, as well as the aqueous solution of DMOA or DEOA selected for the experiment with a consumption rate of 10 L per ton of seeds (this aqueous solution was directly used as a liquid for treatment) or without a growth regulator, depending on the experiment. The following concentrations of the test solutions were used for treatment: 5.5·10^−8 M, 5.5·10^−9 M and 5.5·10^−10 M of DMOA; 4.8·10^−8 M, 4.8·10^−9 M and 4.8·10^−10 M of DEOA.
At the tillering phase (May 23) the crops were sprayed against weeds with “Linthur” herbicide at a dose of 175.0 g/ha, pesticides “BI-58 Novy” were used against pests at a dose of 0.5 L/ha, and against the leaf-stems diseases the crops were sprayed at the early ear emergence stage (June 20) with “Alto Super” fungicide at a dose of 0.5 L/ha together with aqueous solutions of DMOA or DEOA (or without them). Spraying with aqueous solutions of DMOA or DEOA allows to additionally stimulate plant growth. In this case the dosage of aqueous solutions of DMEA or DEOA was 300 L/ha (these solutions were sprayed directly). Spraying with aqueous solutions of DMEA and DEOA was carried out for all variants, where DMOA and DEOA were used for seed treatment. The concentration of the spraying solution was one-thirtieth of the concentration of the solution previously used for treatment of seeds. Accordingly, for DMOA: 1.8·10^−9 M, 1.8·10^−10 M, 1.8·10^−11 M; and for DEOA: 1.6·10^−9 M, 1.6·10^−10 M, 1.6·10^−11 M.
Harvesting of experimental plots was carried out on July 30, before harvesting test sheaves of 0.25 m^2 of each variant of the experiment were taken for structural analysis. […]

[1] = seeds treated 4.8 · 10^−8M, sprayed 1.6·10^−9 M
[2] = seeds treated 4.8 · 10^−9M, sprayed 1.6·10^−10 M
[3] = seeds treated 4.8 · 10^−10M, sprayed 1.6·10^−11 M
[4] = seeds treated 5.5 · 10^−8M, sprayed 1.8·10^−9 M
[5] = seeds treated 5.5 · 10^−9M, sprayed 1.8·10^−10 M
[6] = seeds treated 5.5 · 10^−10M, sprayed 1.8·10^−11 M

CCOC(=O)C=C([O-])C(=O)OCC.[Na+] [DEOA, sodium salt of diethyl ester of oxaloacetic acid]
Effect on wheat growth, yield and quality (in words): express ability to stimulate growth, increase yield and quality of wheat
1000 grains weight [1]: 48.15 g
Gluten [1]: 31.85 % dry basis
Main head length [1]: 8.6 cm
Number of grains from main head [1]: 39 pcs
Number of stems [1]: 612 pcs/m^2
Plant height [1]: 101.7 cm
Productive tilling capacity [1]: 1.34
Protein (N 5.7) [1]: 14.88 % dry basis
Starch [1]: 61.15 % dry basis
Weight of grains from main head [1]: 1.91 g
Yield [1]: 5.50 t/ha
Yield, % (comparing to control) [1]: 112.7%
1000 grains weight [2]: 46.88 g
Gluten [2]: 32.91 % dry basis
Main head length [2]: 9.2 cm
Number of grains from main head [2]: 41 pcs
Number of stems [2]: 408 pcs/m^2
Plant height [2]: 99.4 cm
Productive tilling capacity [2]: 1.33
Protein (N 5.7) [2]: 14.95 % dry basis
Starch [2]: 61.43 % dry basis
Weight of grains from main head [2]: 1.96 g
Yield [2]: 5.32 t/ha
Yield, % (comparing to control) [2]: 109.0%
1000 grains weight [3]: 48.38 g
Gluten [3]: 31.61 % dry basis
Main head length [3]: 10.8 cm
Number of grains from main head [3]: 51 pcs
Number of stems [3]: 324 pcs/m^2
Plant height [3]: 104.3 cm
Productive tilling capacity [3]: 1.69
Protein (N 5.7) [3]: 14.14 % dry basis
Starch [3]: 61.60 % dry basis
Weight of grains from main head [3]: 2.65 g
Yield [3]: 5.00 t/ha
Yield, % (comparing to control) [3]: 102.5%

Sodium salt of dimethyl ester of oxaloacetic acid [DMOA]
Effect on wheat growth, yield and quality (in words): express ability to stimulate growth, increase yield and quality of wheat
1000 grains weight [4]: 46.22 g
Gluten [4]: 33.64 % dry basis
Main head length [4]: 8.7 cm
Number of grains from main head [4]: 36 pcs
Number of stems [4]: 420 pcs/m^2
Plant height [4]: 101.5 cm
Productive tilling capacity [4]: 1.57
Protein (N 5.7) [4]: 14.88 % dry basis
Starch [4]: 61.54 % dry basis
Weight of grains from main head [4]: 1.76 g
Yield [4]: 6.44 t/ha
Yield, % (comparing to control) [4]: 131.9%
1000 grains weight [5]: 47.07 g
Gluten [5]: 34.71 % dry basis
Main head length [5]: 8.9 cm
Number of grains from main head [5]: 37 pcs
Number of stems [5]: 752 pcs/m^2
Plant height [5]: 105.1 cm
Productive tilling capacity [5]: 1.21
Protein (N 5.7) [5]: 14.92 % dry basis
Starch [5]: 61.72 % dry basis
Weight of grains from main head [5]: 1.79 g
Yield [5]: 6.49 t/ha
Yield, % (comparing to control) [5]: 133.0%
1000 grains weight [6]: 46.51 g
Gluten [6]: 33.81 % dry basis
Main head length [6]: 8.8 cm
Number of grains from main head [6]: 37 pcs
Number of stems [6]: 396 pcs/m^2
Plant height [6]: 104.1 cm
Productive tilling capacity [6]: 1.48
Protein (N 5.7) [6]: 14.73 % dry basis
Starch [6]: 61.27 % dry basis
Weight of grains from main head [6]: 1.71 g
Yield [6]: 6.41 t/ha
Yield, % (comparing to control) [6]: 131.4%
